In patent publication US20240132491A1, “INDOLINE COMPOUND” (MEDSHINE DISCOVERY INC., priority 2021, published 2024):

Experiments:
[1] = In vivo pharmacokinetics study in mice; parameters: species or system C57BL/6 mice; conditions: male, C57BL/6, plasma, mouse
Procedure: Male C57BL/6 mice were used as test animals, and the drug concentration in plasma at different times after intragastric administration of the test compound was determined by LC/MS/MS method. The pharmacokinetic behavior of the test compounds in mice in vivo was studied to evaluate their pharmacokinetic characteristics.
Test animals: Healthy male C57BL/6 mice. Drug preparation: For the IV group, the vehicle was 5% DMSO+95% (20% hydroxypropyl-β-cyclodextrin); for the PO group, the vehicle was 5% DMSO+95% (20% HP-β-CD). Administration: The dosage of the test compound was 1 mg/kg for the IV group, and 10 mg/kg or 30 mg/kg for the PO group (note: the PO group was fasted overnight before administration).
Experimental operations: After administration, whole blood was collected for a certain period of time and prepared into plasma. The drug concentration was analyzed by the LC-MS/MS method, and the pharmacokinetic parameters were calculated using Phoenix WinNonlin software (Pharsight, USA)

PD-1/PD-L1 = PD-1/PD-L1 (Homo sapiens (Human), UniProt Q9NZQ7); assay: NFAT assay: TCR Activitor/PD-L1 CHO cells co-cultured with PD-1/NFAT Reporter-Jurkat cells, Bright-Glo readout; assay type: cell-based; conditions: PD-L1 CHO / PD-1 NFAT Reporter-Jurkat co-culture, 5 hours
Chain of PD-1/PD-L1 (Q9NZQ7 19-290): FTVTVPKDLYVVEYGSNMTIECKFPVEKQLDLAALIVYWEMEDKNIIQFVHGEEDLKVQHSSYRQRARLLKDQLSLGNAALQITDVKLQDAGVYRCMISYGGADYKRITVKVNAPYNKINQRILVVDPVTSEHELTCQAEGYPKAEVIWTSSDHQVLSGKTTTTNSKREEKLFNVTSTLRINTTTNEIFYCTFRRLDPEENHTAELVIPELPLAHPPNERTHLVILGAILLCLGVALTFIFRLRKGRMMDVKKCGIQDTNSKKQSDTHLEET
Procedure: PD1:PD-L1 TR-FRET assay kit, purchased from BPS Biosciences. Bright-Glo reagents purchased from Promega. Nivo multimode microplate reader (PerkinElmer)
TCR Activitor/PD-L1 CHO cells with a growth confluence of 80% were seeded at 35,000 cells per well in a plate and then incubated overnight in a 37° C. cell culture incubator. The compound to be tested was 5-fold diluted with a pipette to the 8th concentration, i.e., from 100 μmol to 1.28 nmol, with a DMSO concentration of 100%. Experiments were set up in duplicate wells. 147 μL of culture medium was added to an intermediate plate, and then 3 μL of gradient diluted compound per well was transferred to the intermediate plate according to the corresponding position, resulting in compound concentrations ranging from 2 μmol to 0.0256 nmol with a DMSO concentration of 2%. The T cell receptor/PD-L1 CHO cell supernatant was discarded, and 50 μL of compound working solution was added to each well, followed by incubation at 37° C. for 30 minutes. After incubation, 50 μL of a PD-1/NFAT Reporter-Jurkat cell suspension at a density of 4×10^5/mL was added to each well, and the plate was incubated at 37° C. for 5 hours. After the incubation, 100 μL of Bright-Glo was added to each well. After mixing, chemiluminescence signals were read using a Nivo the multimode microplate reader.
Raw data was converted into inhibition rate using the equation: (Sample−Min)/(Max−Min)*100%. The IC50 value could then be derived by performing a curve fit using a four-parameter logistic model (obtained using the “log(inhibitor) vs. response—Variable slope” mode in GraphPad Prism). The degree of inhibition of the compound on PD-1/PD-L1 was calculated using the equation (Max−Min)/Min. The higher the multiple, the stronger the inhibition of the PD-1/PD-L1 pathway.

MC38-hPD-L1 colon cancer = assay: Drug efficacy in MC38-hPD-L1 colon cancer model of B-hPD-L1 humanized mice; assay type: in vivo; conditions: compounds 20 to 50 mg/kg p.o. BID 21 days; atezolizumab 5 mg/kg i.p. TIW 10 times
Procedure: Mouse colon cancer MC38 cells were purchased from Shunran Shanghai Biotech Co., Ltd. Biocytogen (Beijing) Co. Ltd genetically modified the MC38 cells to express human PD-L1, and named it MC38-hPD-L1. These cells were adherent cells, cultured in a 37° C., 5% CO2 incubator. The culture medium composition was Dulbecco's Modified Eagle's Medium (DMEM) containing 10% inactivated fetal bovine serum.
MC38-hPD-L1 cells resuspended in PBS were inoculated subcutaneously into the right flank of B-hPD-L1 mice at a volume of 5×10^5 cells/0.1 mL per mouse. When the average tumor volume reached 150±50 mm^3, suitable mice were selected based on tumor volume and body weight, and were evenly distributed into each group, with 8 mice per group. Drug administration started on the day of grouping. The administration vehicle of the oral administration group was 5% DMSO+95% (20% HP-β-CD in water), while the administration vehicle of the intraperitoneal injection group was 0.9% sodium chloride injection.
Note: a. The administration volume was calculated based on the weight of the experimental animals at […]; b. The dose was 20 mg/kg within 5 days after grouping, and the dose was adjusted to 50 mg/kg starting from the 6th day; c. “p.o.” refers to oral administration, “i.p.” refers to intraperitoneal injection; d. “TIW” refers to three times a week, “BID” refers to twice a day.
Tumor growth inhibition (TGITV): TGITV (%)=[1−(Ti−T0)/(Vi−V0)][…]% (Ti: mean tumor volume of the treatment group on day i of administration, T0: mean tumor volume of the treatment group on day 0 of administration, Vi: mean tumor volume of the vehicle control group on day i of administration, V0: mean tumor volume of the vehicle control group on day 0 of administration).

Row | Compound | IC50 (PD-1/PD-L1) [nM] | other results
1 | COc1nc(-c2cccc(-c3cccc4c3CCN4c3nccc4cc(CN5CC[C@@H](O)C5)cnc34)c2Cl)ccc1CNC[C@@H]1CCC(=O)N1 [Compound 1] | 35 | AUC(0-inf) ([1]; po, p.o. 30 mg/kg): 18.8 µM·h; AUC(0-t) ([1]; po, p.o. 30 mg/kg): 13.7 µM·h; Cmax ([1]; po, p.o. 30 mg/kg): 1460 nM; half-life ([1]; po, p.o. 30 mg/kg): 12 h
2 | COc1nc(-c2cccc(-c3cccc4c3CCN4c3nccc4cc(CN5CC[C@@H](O)C5)cnc34)c2Cl)cnc1CNC[C@@H]1CCC(=O)N1 [Compound 2] | 16 | AUC(0-inf) ([1]; po, p.o. 30 mg/kg): 23 µM·h; AUC(0-t) ([1]; po, p.o. 30 mg/kg): 20.6 µM·h; Cmax ([1]; po, p.o. 30 mg/kg): 1960 nM; half-life ([1]; po, p.o. 30 mg/kg): 6.9 h
3 | COc1nc(-c2cccc(-c3cccc4c3CCN4c3nc(C(F)F)nc4cc(CN5CC[C@@H](O)C5)cnc34)c2Cl)cnc1CN1CCC(C)(C(=O)O)C1 (stereo partly drawn) [Compound 11] | 24.6 | 
4 | COc1nc(-c2cccc(-c3cccc4c3CCN4c3nc(C(F)F)nc4cc(CN5CC[C@@H](O)C5)cnc34)c2Cl)cnc1CN1CC[C@@H](O)C1 [Compound 12] | 10.9 | 
5 | COc1nc(-c2cccc(-c3cccc4c3CCN4c3nc(C(F)F)nc4cc(CN5CC[C@@H](O)C5)cnc34)c2Cl)cnc1CNC[C@H](C(=O)O)C(C)C [Compound 13] | 19 | 
6 | COc1nc(-c2cccc(-c3cccc4c3CCN4c3nc(C(F)F)nc4cc(CN5CC[C@@H](O)C5)cnc34)c2Cl)cnc1CNCC(C)(C)C(=O)O [Compound 14] | 10.7 | 
7 | COc1nc(-c2cccc(-c3cccc4c3CCN4c3nc(C(F)F)nc4cc(CN5CC[C@@H](O)C5)cnc34)c2Cl)cnc1CN1CCC[C@H]1CC(=O)O [Compound 15] | 35.1 | 
8 | COc1nc(-c2cccc(-c3cccc4c3CCN4c3nc(C(F)F)nc4cc(CN5CC[C@@H](O)C5)cnc34)c2C)cnc1CN1CC[C@@H](C(=O)O)C1 [Compound 19] | 30.7 | 
9 | COc1nc(-c2cccc(-c3cccc4c3CCN4c3nc(C(F)F)nc4cc(CN5CC[C@@H](O)C5)cnc34)c2C)cnc1CN1CCC(C)(C(=O)O)C1 (stereo partly drawn) [Compound 20] | 42.7 | 
10 | COc1nc(-c2cccc(-c3cccc4c3CCN4c3nc(C(F)F)nc4cc(CN5C[C@@H](O)[C@H](O)C5)cnc34)c2Cl)cnc1CNC[C@@H]1COC(=O)N1 [Compound 22] | 22.6 | 
11 | COc1nc(-c2cccc(-c3cccc4c3CCN4c3nc(C(F)F)nc4cc(CN5CC[C@@H](O)C5)cnc34)c2C)ccc1CN1CC[C@@](C)(C(=O)O)C1 [Compound 23] | 32.6 | 
12 | COc1nc(-c2cccc(-c3cccc4c3CCN4c3nc(C(F)F)nc4cc(CN5CC[C@@H](O)C5)cnc34)c2C)ccc1CN1CC[C@](C)(C(=O)O)C1 [Compound 24] | 32.6 | 
13 | Cc1c(-c2nc3cc(CN4CC[C@@](C)(C(=O)O)C4)cnc3o2)cccc1-c1cccc2c1CCN2c1nc(C(F)F)nc2cc(CN3CC[C@@H](O)C3)cnc12 [Compound 30] | 14.5 | 
14 | Cc1c(-c2nc3cc(CN4CC[C@@](C)(O)C4)cc(C#N)c3o2)cccc1-c1cccc2c1CCN2c1nc(C(F)F)nc2cc(CN3CC[C@@H](C(=O)O)C3)cnc12 [Compound 33] | 13.6 | 
15 | Atezolizumab: PD-L1 monoclonal antibody, approved for urothelial carcinoma and non-small cell lung cancer [reference compound] |  | Tumor growth inhibition TGITV (%) (MC38-hPD-L1 colon cancer): 88.4%

More lines, main results first:

Row | IC50 (PD-1/PD-L1) [nM] | Compound | other results
16 | 4.7 | COc1nc(-c2cccc(-c3cccc4c3CCN4c3nc(C(F)F)nc4cc(CN5CC[C@@H](O)C5)cnc34)c2Cl)ccc1CNC[C@@H]1CCC(=O)N1 [Compound 3] | 
17 | 4.5 | COc1nc(-c2cccc(-c3cccc4c3CCN4c3nc(C(F)F)nc4cc(CN5CC[C@@H](O)C5)cnc34)c2Cl)cnc1CNC[C@@H]1CCC(=O)N1 [Compound 4] | Tumor growth inhibition TGITV (%) (MC38-hPD-L1 colon cancer): 86.1%
18 | 3 | N#CCOc1nc(-c2cccc(-c3cccc4c3CCN4c3nc(C(F)F)nc4cc(CN5CC[C@@H](O)C5)cnc34)c2Cl)ccc1CNC[C@@H]1CCC(=O)N1 [Compound 7] | 
19 | 3.9 | N#CCOc1nc(-c2cccc(-c3cccc4c3CCN4c3nc(C(F)F)nc4cc(CN5CC[C@@H](C(=O)O)C5)cnc34)c2Cl)ccc1CNC[C@@H]1CCC(=O)N1 [Compound 8] | 
20 | 4.4 | COc1nc(-c2cccc(-c3cccc4c3CCN4c3nc(C(F)F)nc4cc(CN5CC[C@@H](C(=O)O)C5)cnc34)c2Cl)ccc1CNC[C@@H]1CCC(=O)N1 [Compound 9] | 
21 | 9.2 | COc1nc(-c2cccc(-c3cccc4c3CCN4c3nc(C(F)F)nc4cc(CN5CC[C@@H](O)C5)cnc34)c2Cl)ccc1CN1CCC(C)(C(=O)O)C1 (stereo partly drawn) [Compound 16] | 
22 | 7.5 | N#CCOc1nc(-c2cccc(-c3cccc4c3CCN4c3nc(C(F)F)nc4cc(CN5CC[C@@H](O)C5)cnc34)c2Cl)ccc1CN1CC[C@@H](C(=O)O)C1 [Compound 17] | 
23 | 3.5 | COc1nc(-c2cccc(-c3cccc4c3CCN4c3nc(C(F)F)nc4cc(CN5CCC(C)(O)C5)cnc34)c2Cl)cnc1CNC[C@@H]1CCC(=O)N1 (stereo partly drawn) [Compound 18] | 
24 | 6.71 | Cc1c(-c2nc3cc(CN4CC[C@@H](C(=O)O)C4)cc(C#N)c3o2)cccc1-c1cccc2c1CCN2c1nc(C(F)F)nc2cc(CN3CC[C@@H](O)C3)cnc12 [Compound 27] | AUC(0-inf) ([1]; iv, i.v. 1 mg/kg): 2.1 µM·h; AUC(0-t) ([1]; iv, i.v. 1 mg/kg): 1.65 µM·h; clearance ([1]; iv, i.v. 1 mg/kg): 10.6 mL/min/kg; half-life ([1]; iv, i.v. 1 mg/kg): 12.5 h; Vd ([1]; iv, i.v. 1 mg/kg, read-out: Vdss): 8.97 L/kg; bioavailability ([1]; oral, p.o. 10 mg/kg vs i.v. 1 mg/kg): 46.3%; AUC(0-inf) ([1]; po, p.o. 10 mg/kg): 9.73 µM·h; AUC(0-t) ([1]; po, p.o. 10 mg/kg): 8.91 µM·h; Cmax ([1]; po, p.o. 10 mg/kg): 680 nM; Tmax ([1]; po, p.o. 10 mg/kg): 3.33 h; half-life ([1]; po, p.o. 10 mg/kg): 6.23 h; Tumor growth inhibition TGITV (%) (MC38-hPD-L1 colon cancer): 86.1%
25 | 4.67 | N#Cc1cc(CN2CC[C@@H](C(=O)O)C2)cc2nc(-c3cccc(-c4cccc5c4CCN5c4nc(C(F)F)nc5cc(CN6CC[C@@H](O)C6)cnc45)c3Cl)oc12 [Compound 28] | 
26 | 6.03 | Cc1c(-c2nc3cc(CN4CC[C@@H](C(=O)O)C4)cnc3o2)cccc1-c1cccc2c1CCN2c1nc(C(F)F)nc2cc(CN3CC[C@@H](O)C3)cnc12 [Compound 29] | 
27 | 8.98 | Cc1c(-c2nc3cc(CN4CC[C@@H](O)C4)cc(C#N)c3o2)cccc1-c1cccc2c1CCN2c1nc(C(F)F)nc2cc(CN3CC[C@@H](C(=O)O)C3)cnc12 [Compound 32] | 
